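Values below derive from 48-hour exposures of cells grown in 96-well plates, with endpoints linearly interpolated between the two concentrations bracketing the appropriate inhibition level. The concentration for 50% growth inhibition is given as GI50. TGI: concentration producing complete growth inhibition.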
Columns and labels:
Assay in all cases: inhibition of tumour cell growth, NCI panel, 48 h
KM12 colon = tested on: KM12 colon
ACHN renal = tested on: ACHN renal
K-562 leukemia = tested on: K-562 leukemia
U251 CNS = tested on: U251 CNS
SK-MEL-28 melanoma = tested on: SK-MEL-28 melanoma
SNB-19 CNS = tested on: SNB-19 CNS
HCT-15 colon = tested on: HCT-15 colon
HCC-2998 colon = tested on: HCC-2998 colon
OVCAR-8 ovarian = tested on: OVCAR-8 ovarian
OVCAR-4 ovarian = tested on: OVCAR-4 ovarian

| Structure (SMILES) | GI50 (KM12 colon) | TGI (KM12 colon) | GI50 (ACHN renal) | TGI (ACHN renal) | GI50 (K-562 leukemia) | GI50 (U251 CNS) | TGI (U251 CNS) | GI50 (SK-MEL-28 melanoma) | TGI (SK-MEL-28 melanoma) | GI50 (SNB-19 CNS) | TGI (SNB-19 CNS) | GI50 (HCT-15 colon) | TGI (HCT-15 colon) | GI50 (HCC-2998 colon) | TGI (HCC-2998 colon) | GI50 (OVCAR-8 ovarian) | TGI (OVCAR-8 ovarian) | GI50 (OVCAR-4 ovarian) | TGI (OVCAR-4 ovarian) | TGI (K-562 leukemia) |
| --- | --- | --- | --- | --- | --- | --- | --- | --- | --- | --- | --- | --- | --- | --- | --- | --- | --- | --- | --- | --- |
| O=C1c2ccccc2C(=O)c2c1c(NCCNCCO)c1cc[nH]c1c2NCCNCCO | 4.34 µM | > 39.9 µM | 9.96 µM | > 100 µM | 1.63 µM | 0.739 µM | 19.7 µM | 3.27 µM | 20.5 µM | 1.26 µM | 12.9 µM | > 70.9 µM | > 100 µM | 3.18 µM | 17.2 µM | 2.42 µM | 40.5 µM | 14.2 µM | 45.2 µM |  |
| CCCN(CCC)c1ccc(C=O)c(OC)c1 | 23.7 µM | 83.8 µM | 21.4 µM | > 100 µM | 19.2 µM | 28.1 µM | > 100 µM | 21.3 µM | 83.9 µM | 29.4 µM | > 100 µM | 24.1 µM | > 100 µM | 24.9 µM | > 100 µM | 27.5 µM | > 100 µM | 19.4 µM | 91.7 µM | > 100 µM |
| S=C1SC2(CCCCCC2)NC2=C1CCCCC2 |  | > 100 µM |  | > 100 µM |  |  | > 100 µM |  | > 100 µM |  | 87.5 µM |  | > 100 µM |  | > 100 µM |  | > 100 µM |  | > 100 µM | > 100 µM |
| COc1ccc(S(=O)(=O)N2CCCCC2)cc1NC(=O)c1[nH]c(C)c2c1CCCCC2=O | 4.36 µM | > 100 µM | 2.34 µM | > 100 µM | 1.75 µM | 2.29 µM | 70.4 µM | 2.72 µM | > 100 µM | 3.8 µM | > 100 µM | 1.15 µM | > 100 µM | 1.73 µM | 11.1 µM | 2.19 µM | 46.6 µM | 2.11 µM | > 100 µM | > 100 µM |
| CC(C)(C)c1ccc(NC(=O)c2cc(=O)c3ccccc3[nH]2)c(C(C)(C)C)c1O | 3.13 µM | 8.53 µM | 4.13 µM | 12.8 µM | 4.37 µM | 3.59 µM | 12.9 µM | 12.8 µM | 26 µM | 13.7 µM | 30 µM | 4.32 µM | 15.5 µM | 3.04 µM | 10.4 µM | 3.28 µM | 12.2 µM | 4.18 µM | 15.7 µM | 16.7 µM |
| Cc1occc1C(=S)Nc1ccc(Cl)c(C(=O)OCC2CC2)c1 |  | 96.3 µM |  | > 100 µM |  |  | > 100 µM |  | > 100 µM |  | > 100 µM |  | > 100 µM |  | > 100 µM |  | > 100 µM |  | > 100 µM | > 100 µM |
| Cc1ccc2nc(NC(=O)CSC(=S)N3CCN(Cc4ccccc4)CC3)sc2c1 | > 94.3 µM | > 100 µM | > 100 µM | > 100 µM | > 100 µM | > 100 µM | > 100 µM | > 100 µM | > 100 µM | > 100 µM | > 100 µM | > 100 µM | > 100 µM | > 100 µM | > 100 µM | > 100 µM | > 100 µM | > 100 µM | > 100 µM | > 100 µM |
